Measurements: publication PMC12467033, “Exploring the Inhibitory Potential of Six Porphyrin Compounds Against α-Amylase and α-Glucosidase Linked to Diabetes” (Biomolecules, 2025)
“And” between values parts separate entries of the source, which are not always exact repeats. Equal entries are not always repeated. Where two headings read alike, the source gives them in different places.

How the values were obtained:
[1] = target: T1, α-amylase (Sus scrofa, UniProt P00690); assay: FTIR secondary structure analysis of α-AMY complexes; conditions: enzyme–porphyrin molar ratio 1:2, amide I band
T1 sequence (P00690 16-511): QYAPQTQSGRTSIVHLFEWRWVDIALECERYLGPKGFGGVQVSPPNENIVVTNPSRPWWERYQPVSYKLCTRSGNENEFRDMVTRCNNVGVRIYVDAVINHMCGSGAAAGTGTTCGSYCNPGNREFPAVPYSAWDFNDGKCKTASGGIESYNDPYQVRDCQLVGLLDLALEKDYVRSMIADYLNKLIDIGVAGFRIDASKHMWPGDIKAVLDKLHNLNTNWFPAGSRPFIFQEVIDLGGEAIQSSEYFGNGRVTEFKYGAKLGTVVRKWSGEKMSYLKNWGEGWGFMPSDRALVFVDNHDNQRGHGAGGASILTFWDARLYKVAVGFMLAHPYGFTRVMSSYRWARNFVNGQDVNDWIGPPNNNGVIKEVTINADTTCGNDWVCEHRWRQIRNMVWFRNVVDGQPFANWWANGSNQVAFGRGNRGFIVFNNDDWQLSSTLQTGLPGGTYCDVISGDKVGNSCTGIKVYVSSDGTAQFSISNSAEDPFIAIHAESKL
Source text: A molar ratio of 1:2 (α-amylase/α-glucosidase)–porphyrin solution was placed in a cryocentrifugal concentrator and the dried solid sample was mixed with dry KBr and measured using a Nicolet IS-50 FTIR Spectrometer (ThermoFisher, Waltham, MA, USA) with a scanning range of 4000–400 cm^−1 and a resolution of 4 cm^−1. The overlapping peaks in the amide I band (1700–1600 cm^−1) were further analyzed into multiple feature sub-peaks, and quantitative analysis of the relative content of various secondary structures in proteins using curve fitting methods was performed.

[2] = target: T1, α-amylase; assay: Fluorescence quenching, binding and thermodynamics with α-amylase; conditions: for quenching mechanism of α-amylase fluorescence: Stern–Volmer plots; for quenching mechanism of α-amylase fluorescence / ΔH^0 / ΔS^0: 298–310 K; for ΔH^0 / ΔS^0: Van’t Hoff
Source text: In the α-amylase experiment, a series of porphyrins and amylase (200 U/L) were mixed in a volume ratio of 1:1.
The Stern–Volmer equation [35] was adopted to determine the quenching mechanisms between six porphyrin compounds and both enzymes in the experimental group, with Formula (6):(6) F0/F=1+Ksv[Q]=1+Kqτ0[Q]
The Stern–Volmer equation was adapted based on experimental data to more accurately characterize the quenching behavior [36], with Formula (7):(7) F0/F=e^Ksv[Q]=e^Kqτ0[Q]
In the formula, the fluorescence quenching ratio was calculated as F0/F, where F0 corresponds to the emission intensity of pure α-amylase solution (control) and F denotes the intensity measured after the incremental addition of porphyrin ligands. KSV and Kq denote the Stern–Volmer quenching constant and the bimolecular quenching rate constant, respectively, τ0 (10^−8 s) is the average fluorescence lifetime of the fluorophore in the absence of quencher, and [Q] indicates the concentration of porphyrin compounds.
Due to the presence of an internal filtration effect, a decrease in the fluorescence intensity of the system may occur. Therefore, all fluorescence data were corrected using Formula (8) to eliminate the internal filtration effect.(8) Fcor=Fobse^(Aex+Aem)/2
The evaluation of the interaction forces between porphyrin compounds and the two enzymes can be achieved by calculating thermodynamic parameters. When both ΔH^0 and ΔS^0 are positive, the predominant interaction force is hydrophobic. When both ΔH^0 and ΔS^0 are negative, the main forces are hydrogen bonding and van der Waals forces. When ΔH^0 < 0 and ΔS^0 > 0, the primary interaction is electrostatic attraction.
The thermodynamic parameters were calculated using Formulas (9) and (10), and then the Van’t Hoff plot for the interactions between the porphyrin compounds and the two enzymes was generated by plotting lnKa on the Y-axis versus 1/T on the X-axis.(9) lnKa=−ΔH^0/RT+ΔS^0/R (10) ΔG^0=ΔH^0−TΔS^0=−RTlnKa

[3] = target: α-glucosidase (Saccharomyces cerevisiae, UniProt P53341); assay type: biochemical; conditions: for type of inhibition of α-glucosidase: Lineweaver–Burk plots; for reversibility of inhibition of α-glucosidase: enzyme 100–400 U/L, substrate 5 mmol/L; for Kis: enzyme–substrate complex inhibition constant
α-glucosidase, sequence (P53341 whole entry): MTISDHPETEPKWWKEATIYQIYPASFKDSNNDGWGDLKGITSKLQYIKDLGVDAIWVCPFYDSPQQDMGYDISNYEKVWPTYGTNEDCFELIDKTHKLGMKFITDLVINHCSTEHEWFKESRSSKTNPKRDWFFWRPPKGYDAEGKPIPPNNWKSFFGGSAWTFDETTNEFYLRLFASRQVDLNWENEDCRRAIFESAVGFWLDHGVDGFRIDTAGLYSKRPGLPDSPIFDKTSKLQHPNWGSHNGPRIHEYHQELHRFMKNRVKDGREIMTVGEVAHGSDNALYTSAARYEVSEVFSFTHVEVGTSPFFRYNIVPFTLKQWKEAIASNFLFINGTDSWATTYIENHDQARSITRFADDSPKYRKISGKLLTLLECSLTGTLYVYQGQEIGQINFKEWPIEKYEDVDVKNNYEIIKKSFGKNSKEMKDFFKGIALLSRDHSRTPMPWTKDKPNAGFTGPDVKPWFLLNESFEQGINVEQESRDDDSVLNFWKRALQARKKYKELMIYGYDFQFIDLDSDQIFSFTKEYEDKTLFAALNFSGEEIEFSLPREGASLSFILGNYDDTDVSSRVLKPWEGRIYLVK
Source text: (§1) In the experiment, the concentration of the fixed substrate Gal-G2-α-CNP/pNPG solution was 5 mmol/L, and the concentrations of the two enzymes (100, 200, 300, 400 U/L) were used to determine the effect of different concentrations of porphyrins on enzyme activity. The concentration of the enzyme was 200 U/L, and the concentration of the substrate Gal-G2-α-CNP/pNPG solution (2.5, 5, 7.5, 10 mmol/L) was used to determine the effect of different concentrations of porphyrins on the enzyme-catalyzed substrate activity.
(§2) Upon identifying the type of inhibition, the kinetic equations vary for different inhibition types.
(§3) In the formula, v, Vmax, Km, Ki, and Kis represent the reaction rate, maximum reaction rate, Michaelis constant, and free enzyme inhibition constant, respectively, and the binding enzyme inhibition constant. [S] denotes the substrate concentration. [I] denotes the inhibitor concentration.

[4] = target: T1, α-amylase; assay: Mode of α-AMY inhibition (reversibility, Lineweaver–Burk kinetics); assay type: biochemical; conditions: for type of inhibition of α-amylase: Lineweaver–Burk plots; for reversibility of inhibition of α-amylase: enzyme 100–400 U/L, substrate 5 mmol/L; for Kis: enzyme–substrate complex inhibition constant
Source text: as §1, §2, §3

| SMILES | Random Coil [1] | α-Helix [1] | β-Antiparallel [1] | β-Sheet [1] | β-Turn [1] | quenching mechanism of α-amylase fluorescence [2] | Kq ([2]; T 298 K) | Ksv ([2]; T 298 K) | n (number of binding sites) ([2]; T 298 K) | ΔG^0 ([2]; T 298 K) | Kq ([2]; T 304 K) | Ksv ([2]; T 304 K) | n (number of binding sites) ([2]; T 304 K) | ΔG^0 ([2]; T 304 K) | Kq ([2]; T 310 K) | Ksv ([2]; T 310 K) | n (number of binding sites) ([2]; T 310 K) | ΔG^0 ([2]; T 310 K) | ΔH^0 [2] | ΔS^0 [2] | other results |
| --- | --- | --- | --- | --- | --- | --- | --- | --- | --- | --- | --- | --- | --- | --- | --- | --- | --- | --- | --- | --- | --- |
| Nc1ccc(-c2c3nc(c(-c4ccc(N)cc4)c4ccc([nH]4)c(-c4ccc(N)cc4)c4nc(c(-c5ccc(N)cc5)c5ccc2[nH]5)C=C4)C=C3)cc1 [TAPP] | 9.94% and 9.94 ± 0.02% | 22.45 ± 0.07% | 18.98% and 18.98 ± 0.04% | 14.62 ± 0.03% | 34.00 ± 0.09% | pure static quenching | 4.07 ± 0.05 ×10^12 L/mol/s | 4.07 ± 0.05 ×10^4 L/mol | 1.48 | -9.168 ± 0.0263 kcal/mol | 3.37 ± 0.02 ×10^12 L/mol/s | 3.37 ± 0.02 ×10^4 L/mol | 1.40 | -8.817 ± 0.0287 kcal/mol | 3.07 ± 0.09 ×10^12 L/mol/s | 3.07 ± 0.09 ×10^4 L/mol | 1.31 | -8.329 ± 0.0239 kcal/mol | -29.935 ± 0.0287 kcal/mol | −291.29 ± 0.12 J/mol/k | Vmax ([3]; C 12.5 μg/mL): 0.0791 ± 0.0021 ΔOD/min; Vmax ([3]; C 15 μg/mL): 0.0767 ± 0.0013 ΔOD/min; Vmax ([3]; C 17.5 μg/mL): 0.0736 ± 0.0015 ΔOD/min; Vmax ([3]; C 20 μg/mL): 0.0711 ± 0.0011 ΔOD/min; Vmax ([3]; C 22.5 μg/mL): 0.0688 ± 0.0012 ΔOD/min; type of inhibition of α-glucosidase [3]: mixed type; reversibility of inhibition of α-glucosidase [3]: reversible inhibition; Kis [3]: 55.1227 ± 0.1247 µg/mL; Vmax ([4]; C 2 μg/mL): 0.1670 ± 0.0030 ΔOD/min; Vmax ([4]; C 4 μg/mL): 0.1562 ± 0.0039 ΔOD/min; Vmax ([4]; C 6 μg/mL): 0.1425 ± 0.0032 ΔOD/min; Vmax ([4]; C 8 μg/mL): 0.1328 ± 0.0034 ΔOD/min; Vmax ([4]; C 10 μg/mL): 0.1243 ± 0.0028 ΔOD/min; type of inhibition of α-amylase [4]: mixed type; reversibility of inhibition of α-amylase [4]: reversible inhibition; Kis [4]: 21.2847 ± 0.0677 µg/mL |
| O=C(O)c1ccc(-c2c3nc(c(-c4ccc(C(=O)O)cc4)c4ccc([nH]4)c(-c4ccc(C(=O)O)cc4)c4nc(c(-c5ccc(C(=O)O)cc5)c5ccc2[nH]5)C=C4)C=C3)cc1 [TCPP] | 19.84 ± 0.06% | 10.24 ± 0.02% | 11.75 ± 0.03% | 18.51 ± 0.05% | 39.66 ± 0.09% | pure static quenching | 4.04 ± 0.01 ×10^12 L/mol/s | 4.04 ± 0.01 ×10^4 L/mol | 1.36 | -8.315 ± 0.022 kcal/mol | 3.55 ± 0.08 ×10^12 L/mol/s | 3.55 ± 0.08 ×10^4 L/mol | 1.28 | -7.928 ± 0.017 kcal/mol | 3.01 ± 0.07 ×10^12 L/mol/s | 3.01 ± 0.07 ×10^4 L/mol | 1.20 | -7.572 ± 0.017 kcal/mol | -26.778 ± 0.014 kcal/mol | −259.31 ± 0.09 J/mol/k | Vmax ([3]; C 5 μg/mL): 0.1369 ± 0.0049 ΔOD/min; Vmax ([3]; C 25 μg/mL): 0.1016 ± 0.0014 ΔOD/min; Vmax ([3]; C 50 μg/mL): 0.0745 ± 0.0019 ΔOD/min; Vmax ([3]; C 100 μg/mL): 0.0516 ± 0.0017 ΔOD/min; Vmax ([3]; C 150 μg/mL): 0.0389 ± 0.0006 ΔOD/min; type of inhibition of α-glucosidase [3]: mixed type; reversibility of inhibition of α-glucosidase [3]: reversible inhibition; Kis [3]: 52.5334 ± 0.1408 µg/mL; Vmax ([4]; C 25 μg/mL): 0.1046 ± 0.0025 ΔOD/min; Vmax ([4]; C 50 μg/mL): 0.0872 ± 0.0014 ΔOD/min; Vmax ([4]; C 100 μg/mL): 0.0709 ± 0.0018 ΔOD/min; Vmax ([4]; C 150 μg/mL): 0.0583 ± 0.0021 ΔOD/min; Vmax ([4]; C 200 μg/mL): 0.0496 ± 0.0007 ΔOD/min; type of inhibition of α-amylase [4]: mixed type; reversibility of inhibition of α-amylase [4]: reversible inhibition; Kis [4]: 132.4382 ± 0.1403 µg/mL |
